Data as given in patent publication US20240270741A1 (Cogent Biosciences, Inc., priority 2023, published 2024).

Biological target: FGFR2 (Homo sapiens, UniProt P21802)
Assay: FGFR wild type enzyme assay (HTRF KinEASE-TK), FGFR2
Settings: Enz FGFR2 (nM), FGFR2 wild type enzyme assay

Sequence of FGFR2 (P21802 399-821 limits assumed): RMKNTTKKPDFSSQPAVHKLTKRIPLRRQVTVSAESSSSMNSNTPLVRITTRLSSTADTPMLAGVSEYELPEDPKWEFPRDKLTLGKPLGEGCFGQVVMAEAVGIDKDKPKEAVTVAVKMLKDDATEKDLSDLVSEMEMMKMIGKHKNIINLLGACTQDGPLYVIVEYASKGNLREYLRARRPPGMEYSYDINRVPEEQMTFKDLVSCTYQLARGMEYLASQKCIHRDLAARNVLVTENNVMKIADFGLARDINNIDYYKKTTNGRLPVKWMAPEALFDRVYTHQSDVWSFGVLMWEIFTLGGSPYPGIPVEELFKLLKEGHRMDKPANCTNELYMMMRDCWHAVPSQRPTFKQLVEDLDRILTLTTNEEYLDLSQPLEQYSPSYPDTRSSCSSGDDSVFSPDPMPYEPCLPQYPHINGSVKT

Q: Which IC50 does the source give for Cc1c(-c2cc(Sc3ncc(Cl)cc3F)c3c(C#N)cnn3c2)cnn1C1CCN(C)CC1 [Example 376, 4-((5-chloro-3-fluoropyridin-2-yl)thio)-6-(5-methyl-1-(1-methylpiperidin-4-yl)-1H-pyrazol-4-yl)pyrazolo[1,5-a]pryidine-3-carbonitrile] here?
A: Its IC50 is 5.5 nM.

Q: Cc1cnc(Sc2cc(-c3cnn(C4CCN(C)CC4)c3C)cn3ncc(C#N)c23)c(F)c1 [Example 377, 4-((3-fluoro-5-methylpyridin-2-yl)thio)-6-(5-methyl-1-(1-methylpiperidin-4-yl)-1H-pyrazol-4-yl)pyrazolo[1,5-a]pyridine-3-carbonitrile] was tested. Which IC50 did it give?
A: Its IC50 is 11 nM.

Q: With Cc1ccc(Sc2cc(-c3cnn(C4CCN(C)CC4)c3C)cn3ncc(C#N)c23)c(C#N)c1 [Example 378, 4-((2-cyano-4-methylphenyl)thio)-6-(5-methyl-1-(1-methylpiperidin-4-yl)-1H-pyrazol-4-yl)pyrazolo[1,5-a]pyridine-3-carbonitrile] as the compound, how does the IC50 read?
A: Its IC50 is 4 nM.

Q: How did the IC50 turn out when COc1ccc(Sc2cc(-c3cnn(C4CCN(C)CC4)c3C)cn3ncc(C#N)c23)c(C#N)c1 [Example 379, 4-((2-cyano-4-methoxyphenyl)thio)-6-(5-methyl-1-(1-methylpiperidin-4-yl)-1H-pyrazol-4-yl)pyrazolo[1,5-a]pyridine-3-carbonitrile] was run?
A: The IC50 was 25 nM.

Q: Cc1c(-c2cc(Sc3ccc(F)cc3C#N)c3c(C#N)cnn3c2)cnn1C1CCN([C@@H](C)CO)CC1 [Example 380, (S)-4-((2-cyano-4-fluorophenyl)thio)-6-(1-(1-(1-hydroxypropan-2-yl)piperidin-4-yl)-5-methyl-1H-pyrazol-4-yl)pyrazolo[1,5-a]pyridine-3-carbonitrile] was tested. Which IC50 did it give?
A: The IC50 was 1 nM.

Q: With Cc1c(-c2cc(Sc3ccc(F)cc3C#N)c3c(C#N)cnn3c2)cnn1C1CCN([C@H](C)CO)CC1 [Example 381, (R)-4-((2-cyano-4-fluorophenyl)thio)-6-(1-(1-(1-hydroxypropan-2-yl)piperidin-4-yl)-5-methyl-1H-pyrazol-4-yl)pyrazolo[1,5-a]pyridine-3-carbonitrile] as the compound, how does the IC50 read?
A: Its IC50 is 1 nM.

Q: For CC(=O)N1CCC(n2ncc(-c3cc(Sc4nccc(C)c4F)c4c(C#N)cnn4c3)c2C)CC1 [Example 382, 6-(1-(1-acetylpiperidin-4-yl)-5-methyl-1H-pyrazol-4-yl)-4-((3-fluoro-4-methylpyridin-2-yl)thio)pyrazolo[1,5-a]pyridine-3-carbonitrile], which IC50 is on record?
A: Its IC50 is 14 nM.

Q: For CC(=O)N[C@H]1CC[C@@H](n2ncc(-c3cc(Sc4nc(N)ccc4F)c4c(C#N)cnn4c3)c2C)CC1 [Example 383, N-((1s,4s)-4-(4-(4-((6-amino-3-fluoropyridin-2-yl)thio)-3-cyanopyrazolo[1,5-a]pyridin-6-yl)-5-methyl-1H-pyrazol-1-yl)cyclohexyl)acetamide], which IC50 is on record?
A: Its IC50 is 1 nM.

Q: Which IC50 does the source give for CC(=O)N[C@H]1CC[C@@H](n2ncc(-c3cc(Sc4nc(F)ccc4F)c4c(C#N)cnn4c3)c2C)CC1 [Example 384, N-((1s,4s)-4-(4-(3-cyano-4-((3,6-difluoropyridin-2-y)thio)pyrazolo[1,5-a]pyridin-6-yl)-5-methyl-1H-pyrazol-1-yl)cyclohexyl)acetamide] here?
A: Its IC50 is 1 nM.

Q: Which IC50 does the source give for Cc1c(-c2cc(Sc3cccc(Cl)c3C#N)c3c(C#N)cnn3c2)cnn1C1CCN(C)CC1 [Example 385, 4-((3-chloro-2-cyanophenyl)thio)-6-(5-methyl-1-(1-methylpiperidin-4-yl)-1H-pyrazol-4-yl)pyrazolo[1,5-a]pyridine-3-carbonitrile] here?
A: Its IC50 is 1.5 nM.

Q: How did the IC50 turn out when COc1cc(Sc2cc(-c3cnn(C4CCN(C)CC4)c3C)cn3ncc(C#N)c23)c(C#N)cc1F [Example 386, 4-((2-cyano-4-fluoro-5-methoxyphenyl)thio)-6-(5-methyl-1-(1-methylpiperidin-4-yl)-1H-pyrazol-4-yl)pyrazolo[1,5-a]pyridine-3-carbonitrile] was run?
A: The IC50 was 5 nM.

Q: How did the IC50 turn out when Cc1c(-c2cc(Sc3ccc(F)cc3C#N)c3c(C#N)cnn3c2)cnn1[C@H]1CCN(C)C(C)(C)C1 [Example 387, (S)-4-((2-cyano-4-fluorophenyl)thio)-6-(5-methyl-1-(1,2,2-trimethylpiperidin-4-yl)-1H-pyrazol-4-yl)pyrazolo[1,5-a]pyridine-3-carbonitrile] was run?
A: Its IC50 is 1 nM.

Q: For Cc1c(-c2cc(Sc3ccc(F)cc3C#N)c3c(C#N)cnn3c2)cnn1[C@@H]1CCN(C)C(C)(C)C1 [Example 388, (R)-4-((2-cyano-4-fluorophenyl)thio)-6-(5-methyl-1-(1,2,2-trimethylpiperidin-4-yl)-1H-pyrazol-4-yl)pyrazolo[1,5-a]pyridine-3-carbonitrile], which IC50 is on record?
A: The IC50 was 0.5 nM.

Q: How did the IC50 turn out when Cc1c(-c2cc(Sc3ncc(F)cc3F)c3c(C#N)cnn3c2)cnn1[C@H]1CCN(C)C(C)(C)C1 [Example 389, (S)-4-((3,5-difluoropyridin-2-yl)thio)-6-(5-methyl-1-(1,2,2-trimethylpiperidin-4-yl)-1H-pyrazol-4-yl)pyrazolo[1,5-a]pyridine-3-carbonitrile] was run?
A: Its IC50 is 5 nM.

Q: For Cc1c(-c2cc(Sc3ncc(F)cc3F)c3c(C#N)cnn3c2)cnn1[C@@H]1CCN(C)C(C)(C)C1 [Example 390, (R)-4-((3,5-difluoropyridin-2-yl)thio)-6-(5-methyl-1-(1,2,2-trimethylpiperidin-4-yl)-1H-pyrazol-4-yl)pyrazolo[1,5-a]pyridine-3-carbonitrile], which IC50 is on record?
A: The IC50 was 42 nM.

Q: With Cc1c(-c2cc(Sc3ccc(F)cc3C#N)c3c(C#N)cnn3c2)cnn1[C@H]1CC[C@H](N(C)CCO)CC1 [Example 391, 4-((2-cyano-4-fluorophenyl)thio)-6-(1-((1r,4r)-4-((2-hydroxyethyl)(methyl)ami-no)cyclohexyl)-5-methyl-1H-pyrazol-4-yl)pyrazolo[1,5-a]pyridine-3-carbonitrile] as the compound, how does the IC50 read?
A: Its IC50 is 1 nM.

Q: How did the IC50 turn out when CN(C)[C@H]1CC[C@@H](n2cc(-c3cc(Sc4ncccc4F)c4c(C#N)cnn4c3)nn2)CC1 [Example 392, 6-[1-[4-(dimethylamino)cyclohexyl]triazol-4-yl]-4-[(3-fluoro-2-pyridyl)sulfanyl] pyrazolo [1,5-a]pyridine-3-carbonitrile] was run?
A: Its IC50 is 12 nM.

Q: With CC(=O)N[C@H]1CC[C@@H](n2cc(-c3cc(Sc4ncccc4F)c4c(C#N)cnn4c3)c(C)n2)CC1 [Example 393, N-((1s,4s)-4-(4-(3-cyano-4-((3-fluoropyridin-2-yl)thio)pyrazolo[1,5-a]pyridin-6-yl)-3-methyl-1H-pyrazol-1-yl)cyclohexyl)acetamide] as the compound, how does the IC50 read?
A: Its IC50 is 6 nM.

Q: For CC(=O)N[C@H]1CC[C@@H](n2cc(-c3cc(Sc4ccccc4C#N)c4c(C#N)cnn4c3)c(C)n2)CC1 [Example 394, N-((1s,4s)-4-(4-(3-cyano-4-((2-cyanophenyl)thio)pyrazolo [1,5-a]pyridin-6-yl)-3-methyl-1H-pyrazol-1-yl)cyclohexyl)acetamide], which IC50 is on record?
A: Its IC50 is 3 nM.

Q: For CN1CCC(n2ncc(-c3cc(Sc4ncccc4F)c4c(C#N)cnn4c3)c2Cl)CC1 [Example 395, 6-(5-chloro-1-(1-methylpiperidin-4-yl)-1H-pyrazol-4-yl)-4-((3-fluoropyridin-2-yl)thio)pyrazolo[1,5-a]pyridine-3-carbonitrile], which IC50 is on record?
A: The IC50 was 3 nM.

Q: For CN1CCC(n2ncc(-c3cc(Sc4ccccc4C#N)c4c(C#N)cnn4c3)c2Cl)CC1 [Example 396, 6-(5-chloro-1-(1-methylpiperidin-4-yl)-1H-pyrazol-4-yl)-4-((2-cyanophenyl)thio)pyrazolo [1,5-a]pyridine-3-carbonitrile], which IC50 is on record?
A: Its IC50 is 1 nM.
